From US10597735B2, “Antibacterial and plasmid elimination agents” (priority 2006, dated 2020)
≈ marks a conversion by molar mass, not a printed value. Like-named read-outs stand apart in the source and are kept apart here. Where a SMILES comes first, the peptide text is derived from it. Where no end group is shown, it is not given here.

Experiments:
C. crescentus [1] = type: cell-based, Caulobacter crescentus; details: 14 h
Experimental: Antibacterial activity assays: To measure the effects of peptides on bacterial growth, cultures of C. crescentus were diluted to OD600=0.001, peptide was added at various concentrations, the cultures were incubated at 30° C. for 14 h, and the MIC was determined as the lowest concentration of peptide that prevented growth. To determine the MBC, each culture was diluted 1:100 in PYE and 10 μl of the diluted culture was spread onto PYE agar plates, incubated at 30° C. overnight, and the number of colonies on each plate was counted. The MBC was assigned as the concentration of peptide that reduced the number of colonies by 99.9% compared to cultures with no inhibitor.

ClpXP [2] = biological target: T1, ClpXP (Escherichia coli, UniProt P0A6G7+P0A6H1); assay: biochemical; type: biochemical, E. coli; details: for Ki: purified peptides and E. coli proteins, GFP-tag; for Ki / mode of inhibition of GFP-tag degradation: SspB present
T1 sequence (P0A6G7 15-207): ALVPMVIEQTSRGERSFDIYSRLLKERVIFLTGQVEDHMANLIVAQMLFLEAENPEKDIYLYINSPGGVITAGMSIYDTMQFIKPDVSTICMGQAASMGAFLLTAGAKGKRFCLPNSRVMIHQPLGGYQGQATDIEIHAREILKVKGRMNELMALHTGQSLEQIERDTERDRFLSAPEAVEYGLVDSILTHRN
T1 sequence (P0A6H1 whole entry): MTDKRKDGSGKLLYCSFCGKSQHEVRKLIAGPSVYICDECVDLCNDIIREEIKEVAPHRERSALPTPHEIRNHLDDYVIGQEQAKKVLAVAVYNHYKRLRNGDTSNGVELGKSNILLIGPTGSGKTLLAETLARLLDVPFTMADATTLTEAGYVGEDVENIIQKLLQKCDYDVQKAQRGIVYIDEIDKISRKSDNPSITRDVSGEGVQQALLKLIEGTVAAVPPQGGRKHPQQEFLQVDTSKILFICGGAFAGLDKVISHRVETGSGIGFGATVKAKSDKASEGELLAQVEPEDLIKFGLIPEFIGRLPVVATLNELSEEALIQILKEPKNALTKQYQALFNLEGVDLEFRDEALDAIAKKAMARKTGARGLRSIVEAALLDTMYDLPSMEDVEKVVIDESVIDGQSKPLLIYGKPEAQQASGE
Experimental: In vitro proteolysis assays: Proteolysis of GFP-tag was performed using a continuous fluorescence assay essentially as previously described (Levchenko et al. 2000, Science 289: 2354-2356). Briefly, loss of GFP fluorescence was monitored at 507 nm after excitation at 395 nm at 30° C. using a Hitachi F-2000 Fluorescence Spectrophotometer in buffer R (25 mM HEPES-KOH (pH 7.6), 5 mM MgCl2, 50 mM KCl, 0.032% NP-40, 10% glycerol, and an ATP regeneration system containing 4 mM ATP (pH 7), 16 mM creatine phosphate and 0.32 mg/ml creatine kinase). Typically, reactions contained […], 0.3 μM ClpP14, and equimolar concentrations (0.2 μM-2.0 μM) GFP-tag and SspB. Degradation of GFP-tag protein was confirmed by SDS-PAGE assays. To examine inhibition of GFP-tag proteolysis, peptides were incubated with ClpXP in reaction buffer for 5 min prior to the addition of GFP-tag. Plots of fluorescence versus time were fit with a single exponential function to determine the initial rate of proteolysis. Kinetic parameters were estimated using Eadie-Hofstee plots.
Proteolysis of GFP-tag in the presence of ClpXP and SspB was monitored by loss of GFP fluorescence in a continuous fluorometric assay. In the absence of cyclic peptide, GFP-tag was degraded with kinetic parameters kcat=[…], KM=0.74±0.04 μM. […] Likewise, no degradation was observed when ClpX or ClpP were omitted from the reaction.

ClpXP [3] = biological target: T1, ClpXP; assay: ClpXP degradation of GFP-tag in the absence of SspB (Examples 1-2); type: biochemical, E. coli; details: for Ki: GFP-tag degradation by ClpXP; for Ki / inhibition of GFP-tag degradation by ClpXP in the absence of SspB: no SspB
Experimental: (§1) ClpXP Proteolysis: PD buffer contained 25 mM HEPES-KOH (pH 7.6), 5 mM KCl, 5 mM MgCl2, 0.032% NP-40, 5 mM ATP, and 10% glycerol. The ATP regenerating system consisted of 8 mM creatine phosphate and 0.16 mg/ml creatine kinase. Inhibition experiments were performed using a Hitachi F-2000 Fluorescence Spectrophotometer. The rate of GFP-ssrA degradation was monitored at 30° C. for 5 minutes by the loss of fluorescence (excitation 488 nm; emission 507 nm). Competition experiments with increasing concentrations of peptide were performed using GFP-ssrA (0.2 μM), ClpX6 (0.3 ArM), ClpP14 (0.8 μM), and SspB2 (0.3 μM) in PD buffer plus 200 mM KCl and ATP regenerating system. Curve fitting for the competitive inhibition assays were performed using the Scientist program (MicroMath Scientific Software, Inc.).
A priori, there are several steps in the degradation pathway that could be inhibited by the selected cyclic peptides: binding of the substrate-SspB complex to ClpXP, ATPase activity of ClpX, and hydrolysis of the peptide bond by ClpP. Molecules that block the binding of substrate to SspB should not be inhibitors of proteolysis by ClpXP, because ClpXP will degrade tmRNA-tagged substrates in the absence of SspB. To determine if the inhibitors act through SspB, the kinetic assays were repeated in the absence of this proteolytic adaptor.

C. crescentus [4] = type: cell-based, Caulobacter crescentus
Experimental: Antibacterial activity: The peptides recovered from the selection were tested for antibacterial activity by incubating a 1:1,000 diluted saturated culture with the peptide overnight at room temperature. For each peptide a series of concentrations were tested. The mix was then plated, and the colonies were counted after a period incubation at 30° for C. crescentus or 37° C. for B. subtilis. For C. crescentus, PYE liquid media were incubated overnight at 30° C. at 250 rpm, and PYE plates were incubated for 3 days at 30° C. For B. subtilis, LB liquid media and plates were incubated overnight at 37° C. […]
Antibacterial activity of cyclic peptide inhibitors: Because ClpXP is essential in C. crescentus, we examined whether the inhibitory peptides have any effect when added exogenously to growing cultures. […] ClpXP is not essential in Bacillus subtilis, but mutants lacking ClpXP activity have growth and sporulation defects. […] No killing of E. coli or the related γ-proteobacteria Shigella flexneri and Vibrio cholera was observed. It remains to be determined if the selected cyclic peptides are effective against pathogenic bacterial that require the tmRNA-ClpXP pathway.

ClpXP [5] = biological target: T1, ClpXP; assay: ClpXP degradation of λO protein (Example 1); type: biochemical, E. coli; details: concentrations near or 10-fold above the KI for GFP-tag
Experimental: The differing effects of SspB on inhibition indicate that inhibitors for two different steps in the ClpXP degradation pathway were obtained from the genetic screen. To confirm the different specificities of these two inhibitors, the effects on ClpXP degradation of a substrate unrelated to tmRNA tagged proteins was assayed. Because ClpXP can recognize at least 5 different protein sequences as substrate determinants, it has been proposed that there are several substrate binding sites on the protease. Inhibitors that block one site of interaction are expected to affect degradation of only the substrates that bind at that site. Conversely, inhibitors that block catalysis or obstruct a binding site required by all substrates should affect degradation of any ClpXP substrate.

ClpXP [6] = biological target: T1, ClpXP; assay: ClpXP degradation of GFP-tag in the presence of SspB, continuous fluorimetric assay (Examples 1-2); type: biochemical, E. coli; details: GFP-tag degradation by ClpXP
Experimental: as §1
Characterization of ClpXP inhibitors in vitro: Two of the selected cyclic peptides were synthesized in vitro to examine their effects on enzymatic assays. Peptides with the sequence SGWRVQGPL (SEQ ID NO: 1) and SGSKGVLPL (SEQ ID NO: 2) were chemically synthesized in the linear form, circularized, and purified by HPLC. The effects of these peptides on the activity of purified ClpXP were determined in vitro using a continuous fluorimetric assay. GFP-tag, SspB, ClpX and ClpP were each purified from over-expressing strains of E. coli, and degradation of GFP-tag was monitored by loss of fluorescence. In reactions containing all components, GFP-tag was degraded with kinetic parameters kcat=1.79±0.08 min−1, KM=0.74±0.04, similar to the previously published values of 1.44 min^−1 and 0.96 μM. […] For both cyclic peptides, inhibition of ClpXP was reversible, as no inhibition was observed when ClpXP was incubated with peptide at concentrations above the Kr, and dialyzed to remove unbound peptide before addition of enzyme to the reaction. The linear versions of SGSKGVLPL (SEQ ID NO: 2) and SGWRVQGPL (SEQ ID NO: 1) had Kb, values >1 mM (Table 4), so the cyclic architecture is likely to be important for inhibition.

GFP-tag reporter = GFP-tag reporter fluorescence in cells expressing SGW+5 SICLOPPS clones, epifluorescence microscopy (Example 1); type: cell-based, E. coli
Source text: Clonal populations are obtained by spotting the cells with high fluorescence on agar plates, and cells from each colony are screened by epi-fluorescence microscopy for fluorescence intensity. SICLOPPS plasmids from clones that pass the microscopy screen were isolated and sequenced to identify the cyclic peptide that is produced in that clone.
A SICLOPPS library was constructed in which the cyclic peptide contains three constant amino acids, SGW, followed by five random amino acids encoded by NNS codons. This library was introduced into cells containing the GFP-tag reporter, and the expression of the reporter and cyclic peptide were induced. Approximately 690,000 cells were sorted by FACS and the brightest 50 were isolated. These 50 clones were grown individually in fresh medium, the expression of reporter and cyclic peptide was induced, and the culture was observed by epifluorescence microscopy. Two clones produced cultures in which nearly 100% of the cells were highly fluorescent.

[7] = test system: GFP-tag degradation by ClpXP; assay: In vivo screen: GFP-tag reporter fluorescence in E. coli producing the cyclic peptide from a SICLOPPS plasmid, epifluorescence microscopy (Example 3); type: cell-based
Experimental: Screen for inhibitors of the tmRNA pathway: E. coli BW7786 cells containing the GFP-tag reporter and the SICLOPPS library were grown in LB broth with 30 μg/ml chloramphenicol, 100 μg/ml ampicillin, and 0.0002% arabinose at 37° C. to OD600=0.3. IPTG was added to a final concentration of 1 mM, and the culture was grown for 3 hours. Cells were sorted by fluorescence activated cell sorting (FACS) using a Beckman Coulter Elite cell sorter with Autoclone to isolate cells with GFP fluorescence, and selected cells were deposited on agar plates for clonal growth. Cells from each colony were grown in liquid culture as described above and examined by epifluorescence microscopy. The fluorescence intensity and the number of cells with fluorescence above background were scored using ImagePro software (MediaCybernetics). SICLOPPS plasmid DNA was prepared from selected clones and the region encoding the cyclic peptide was sequenced. Peptide sequences were obtained from conceptual translation of the DNA sequences.
Approximately 0.014% of the population had fluorescence over the background level, and 96 of these cells were isolated for clonal growth and characterization. To eliminate any clones that resulted from sorting errors or spurious accumulation of GFP, cells from each colony were cultured and examined by epifluorescence microscopy.

[8] = SspB present, read-out: KI value +SspB

Compound: H-SGWYGRRH-OH [linear IXP1, SGWYGRRH]
- MBC (C. crescentus [1]): 481 ± 38 µM
- MIC (C. crescentus [1]): 385 ± 28 µM
- Ki (ClpXP [2]): > 1000 µM
- inhibition of ClpXP in vitro at concentrations up to 1 mM (ClpXP [2]): little inhibition

Compound: CC(C)C[C@@H]1NC(=O)[C@@H]2CCCN2C(=O)CNC(=O)[C@H](CCC(N)=O)NC(=O)[C@H](C(C)C)NC(=O)[C@H](CCCNC(=N)N)NC(=O)[C@H](Cc2c[nH]c3ccccc23)NC(=O)CNC(=O)[C@H](CO)NC1=O [ICP2, SGWRVQGPL] (HELM PEPTIDE1{G.P.L.S.G.W.R.V.Q}$PEPTIDE1,PEPTIDE1,1:R1-9:R2$$$V2.0)
- Ki (ClpXP [3]): > 1000 µM
- inhibition of GFP-tag degradation by ClpXP in the absence of SspB (ClpXP [3]): did not inhibit
- KI in the absence of SspB, fold higher (ClpXP [3]; no SspB versus +SspB): at least 10 fold
- MIC (C. crescentus [4]): 62.2 µM (≈ 61 µg/mL)
- effect on degradation of λO protein by ClpXP (ClpXP [5]): no effect
- mode of inhibition of GFP-tag degradation (ClpXP [2]): competitive inhibitors
- inhibition of ClpXP proteolysis of GFP-tag in vitro (ClpXP [2]; at the concentrations tested): inhibited

Compound: SGWHRRGM [linear IXP2, SGWHRRGM]
- MBC (C. crescentus [1]): 376 ± 37 µM
- MIC (C. crescentus [1]): 304 ± 27 µM

Compound: SGGRGGRPL (also: cyclic, mode of cyclisation not given here) [IXP5]
- inhibition of ClpXP proteolysis of GFP-tag in vitro (ClpXP [2]): did not inhibit

Compound: CC(C)C[C@@H]1NC(=O)[C@@H]2CCCN2C(=O)[C@H](CC(C)C)NC(=O)[C@H](C(C)C)NC(=O)CNC(=O)[C@H](CCCCN)NC(=O)[C@H](CO)NC(=O)CNC(=O)[C@H](CO)NC1=O [ICP1, SGSKGVLPL] (HELM PEPTIDE1{G.S.K.G.V.L.P.L.S}$PEPTIDE1,PEPTIDE1,1:R1-9:R2$$$V2.0)
- inhibition of GFP-tag degradation by ClpXP in the absence of SspB (ClpXP [3]): inhibited
- MIC (C. crescentus [4]): 62.2 µM (≈ 52.2 µg/mL)
- effect on degradation of λO protein by ClpXP (ClpXP [5]): inhibited
- mode of inhibition of GFP-tag degradation (ClpXP [2]): competitive inhibitors
- inhibition of ClpXP proteolysis of GFP-tag in vitro (ClpXP [2]; at the concentrations tested): inhibited

Compound: H-SGSKGVLPL-OH [linICP1, SGSKGVLPL]
- Ki (ClpXP [3]): > 1500 µM
- Ki (ClpXP [6]; [8]): > 1500 µM
- Ki (ClpXP [6]; read-out: Kb, values (KI) of linear versions): > 1000 µM
- MIC (C. crescentus [4]): >250 µM
- inhibition of ClpXP in vitro at concentrations up to 1 mM (ClpXP [2]): little inhibition

Compound: CSCC[C@@H]1NC(=O)CNC(=O)[C@H](CCCNC(=N)N)NC(=O)[C@H](CCCNC(=N)N)NC(=O)[C@H](Cc2c[nH]cn2)NC(=O)[C@H](Cc2c[nH]c3ccccc23)NC(=O)CNC(=O)[C@H](CO)NC1=O [IXP2, SGWHRRGM] (HELM PEPTIDE1{G.M.S.G.W.H.R.R}$PEPTIDE1,PEPTIDE1,1:R1-8:R2$$$V2.0)
- average fluorescent intensity relative to cultures expressing ICP1 or ICP2 (GFP-tag reporter): more than twice
- cells highly fluorescent (GFP-tag reporter; induced culture): ~100%
- % fluorescent cells ([7]; cells with fluorescence at least 0.5 times that of ΔclpX cells producing GFP-tag): 30-40%
- GFP-tag fluorescence / inhibition in vivo ([7]; compared with ΔclpX strain): indistinguishable from the ΔclpX strain
- MBC (C. crescentus [1]): >600 µM
- MIC (C. crescentus [1]): 430 ± 40 µM (≈ 416 µg/mL)
- inhibition of ClpXP proteolysis of GFP-tag in vitro (ClpXP [2]; at the concentrations tested): did not inhibit
- Ki (ClpXP [2]): > 1000 µM

Compound: CSCC[C@@H]1NC(=O)[C@H](Cc2c[nH]c3ccccc23)NC(=O)[C@H](CCCCN)NC(=O)[C@H](Cc2ccc(O)cc2)NC(=O)[C@@H]2CCCN2C(=O)[C@H](Cc2c[nH]c3ccccc23)NC(=O)CNC(=O)[C@H](CO)NC1=O [Con62, SGWPYKWM, reference compound] (HELM PEPTIDE1{G.W.P.Y.K.W.M.S}$PEPTIDE1,PEPTIDE1,1:R1-8:R2$$$V2.0)
- Ki (ClpXP [3]): > 1000 µM
- Ki (ClpXP [6]; [8]): > 1000 µM
- MIC (C. crescentus [4]): >250 µM
- MBC (C. crescentus [1]): >600 µM
- MIC (C. crescentus [1]): >600 µM
- Ki (ClpXP [2]): > 1000 µM

Compound: SGWRVQGPL [linICP2, SGWRVQGPL]
- MIC (C. crescentus [4]): >250 µM
